US9193729B2, “Inhibiting transient receptor potential ion channel TRPA1” (Cubist Pharmaceuticals, Inc., priority 2011, dated 2015)
“Also recorded” adds a separate entry of the source.

Legend:
rTRPA1 = rTRPA1 (Rattus norvegicus, UniProt Q6RI86); assay: Whole-cell patch clamp inhibition of rTRPA1; type: cell-based; settings: rTRPA1, 10 micromolar AITC activation; read-out: IC50 Inward current
Protocol: (§1) Data for TRPA1 inhibition and the selectivity of TRPA1 inhibition was obtained by this method for the compound of Formula (Ia) and included in Table 1 and Table 2. All currents were recorded in whole-cell configuration using EPC-9 and EPC-10 amplifiers and Patchmaster software (HEKA). […] The standard pipette solution consisted of 140 mM CsAsp, 10 mM EGTA, 10 mM HEPES, 2.27 mM MgCl2, 1.91 mM CaCl2, 4 mM MgATP, and 0.1-0.3 mM Na2GTP, with pH adjusted to 7.2 with CsOH. In addition, a solution containing 145 mM CsCl, 10 mM HEPES, 10 mM EGTA and 1 mM MgCl2 (pH 7.2 adjusted with CsOH) can be used. The standard bath solution contained 150 mM NaCl, 10 mM HEPES, 10 mM glucose, 4.5 mM KCl, 1 mM EGTA, 3 mM MgCl2, with pH adjusted to 7.4 with NaOH. In some instances, 2 mM CaCl2 was added in place of EGTA and the concentration of MgCl2 was reduced to 1 mM.
(§2) Data were collected either by continuous recordings at −60 mV or by applying voltage ramps from a holding potential of 0 mV every 4 s. […] Inward and outward currents were analyzed from the ramps at −80 and 80 mV, respectively. […]
(§3) Solutions were switched using a gravity-fed continuous focal perfusion system. […] Temperatures were confirmed using a thermistor (Warner Instruments, TA-29), with temperatures at the recorded cell estimated to be within +/−2° C. of those reported. […]

hTRPV1 = hTRPV1 (Homo sapiens, UniProt Q8NER1); assay: Patch clamp selectivity, hTRPV1; type: cell-based; settings: hTRPV1 vs TRPA1
hTRPV1, sequence (Q8NER1 whole entry): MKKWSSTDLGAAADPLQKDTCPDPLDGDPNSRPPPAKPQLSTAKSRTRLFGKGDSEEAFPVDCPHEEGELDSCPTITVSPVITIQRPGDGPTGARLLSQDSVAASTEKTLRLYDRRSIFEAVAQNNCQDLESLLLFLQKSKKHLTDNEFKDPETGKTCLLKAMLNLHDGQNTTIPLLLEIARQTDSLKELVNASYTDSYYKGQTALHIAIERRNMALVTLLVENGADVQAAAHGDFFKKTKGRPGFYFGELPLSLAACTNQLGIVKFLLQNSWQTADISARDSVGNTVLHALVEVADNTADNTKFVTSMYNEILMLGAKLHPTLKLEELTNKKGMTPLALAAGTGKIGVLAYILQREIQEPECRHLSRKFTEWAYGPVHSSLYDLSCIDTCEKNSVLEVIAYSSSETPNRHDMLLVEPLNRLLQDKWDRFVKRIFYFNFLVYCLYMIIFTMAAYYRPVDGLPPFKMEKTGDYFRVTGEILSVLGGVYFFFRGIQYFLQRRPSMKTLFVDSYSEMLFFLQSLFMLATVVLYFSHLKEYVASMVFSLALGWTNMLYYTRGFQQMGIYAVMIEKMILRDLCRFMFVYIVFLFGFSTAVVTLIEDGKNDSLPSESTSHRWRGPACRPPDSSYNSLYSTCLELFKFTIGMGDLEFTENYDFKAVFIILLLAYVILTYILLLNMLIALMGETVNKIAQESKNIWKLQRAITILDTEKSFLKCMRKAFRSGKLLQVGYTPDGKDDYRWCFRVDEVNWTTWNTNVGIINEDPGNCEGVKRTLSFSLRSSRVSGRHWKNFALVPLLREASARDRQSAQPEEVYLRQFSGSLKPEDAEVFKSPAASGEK
Protocol: as §1, §2, §3

hTRPV6 = target: T1, hTRPV6 (Homo sapiens, UniProt Q9H1D0); assay: Patch clamp selectivity, hTRPV6; type: cell-based; settings: hTRPV6 vs TRPA1
T1 sequence (Q9H1D0 1-765): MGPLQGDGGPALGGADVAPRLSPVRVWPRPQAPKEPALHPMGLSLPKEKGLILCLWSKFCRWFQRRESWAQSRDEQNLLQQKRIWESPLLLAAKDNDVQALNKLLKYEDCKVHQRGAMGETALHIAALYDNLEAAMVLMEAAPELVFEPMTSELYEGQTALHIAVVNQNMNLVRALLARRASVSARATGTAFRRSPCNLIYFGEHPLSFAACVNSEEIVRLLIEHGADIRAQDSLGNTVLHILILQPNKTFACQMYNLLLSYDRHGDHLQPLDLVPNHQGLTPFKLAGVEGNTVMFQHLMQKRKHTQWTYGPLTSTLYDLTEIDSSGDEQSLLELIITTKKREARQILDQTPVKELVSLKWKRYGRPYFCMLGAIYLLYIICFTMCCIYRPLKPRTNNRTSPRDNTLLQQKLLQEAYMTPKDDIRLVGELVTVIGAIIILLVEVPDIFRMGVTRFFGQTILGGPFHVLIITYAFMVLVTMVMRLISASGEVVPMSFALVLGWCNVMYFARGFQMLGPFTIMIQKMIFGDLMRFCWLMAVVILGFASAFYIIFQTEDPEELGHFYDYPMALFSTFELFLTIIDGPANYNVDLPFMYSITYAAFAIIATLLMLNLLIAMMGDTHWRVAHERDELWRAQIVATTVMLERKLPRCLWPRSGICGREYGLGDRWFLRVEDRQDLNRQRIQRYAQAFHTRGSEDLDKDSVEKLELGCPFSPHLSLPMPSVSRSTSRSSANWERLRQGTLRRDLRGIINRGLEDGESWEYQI
Protocol: as §1, §2, §3

[1] = tested on: CFA-induced cold allodynia; assay: Complete Freund's Adjuvant (CFA) cold allodynia rodent pain model; type: in vivo, rat; settings: in words
Protocol: The compound of Formula (Ia) is also active in rodent models of pain in vivo induced by cold allodynia following chronic Complete Freund's Adjuvant-induced inflammation, as described in Example 6. […] The compound of Formula (Ia), the comparator compound of Formula (II) and ketoprofen were tested by the CFA-induced pain test method reported in del Camino et al., J. Neurosci., 30(45):15165-15174, incorporated herein by reference in its entirety. Briefly, the hind paw is sensitized to cold temperature (allodynic), by administering 0.1 mL of Complete Freund's Adjuvant (CFA) is administered to the left hind paw. 2-3 days later, the time taken for the animal to lift its CFA-injected paw is recorded compared to its un-injected normal right hind paw. […] To avoid tissue damage the maximum cut-off time is 5 minutes. Animals that are allodynic (average PWL to the first three pain behaviors<150 seconds for the CFA-injected hind paw: ˜≧50% difference between the normal and CFA-injected paw) are included in the study and subsequently randomized across treatment groups. The following day, the animals are dosed under blinded conditions. Following the 1-2 hour pre-treatment time, the post-dose PWL readings are again taken. The efficacy of the drug treatment is assessed by comparing the PWL in the drug treatment animals to those animals that receive the vehicle.

[2] = tested on: incisional spontaneous pain; assay: Surgical incision pain model (Brennan Surgical Model); type: in vivo, rat; settings: 60 mg/kg i.p. vs ketoprofen (2 doses of 2 mg/kg intraperitoneally)
Protocol: The compound of Formula (Ia), the comparator compound of Formula (III) and ketoprofen were tested by the incisional pain test method reported in Brennan et al., Pain, 1996 March; 64(3):493-501 incorporated herein by reference in its entirety. Briefly, in rats under anesthesia, a 1 cm incision through skin and underlying muscle is made in the bottom of one hind paw. The incision is sutured closed and the animals allowed to regain consciousness in their home cage before being placed on a special mesh rack. The blinded observer subjectively assesses and records each animal's pain score every 5 minutes for 1 hour. Pain scores are assigned as follows: Score of 0=Injured paw is held flat on the rack and is bearing weight (=uninjured paw); 1=Injured paw is slightly lifted from the rack but is bearing some weight; 2=Injured paw is flat but is bearing no weight, or heel is lifted high off the rack with only toes touching. At the end of each hour, pain scores are added up and the final score recorded ([…]). In a typical study the efficacy of the drug treatment is determined by comparing the cumulative guarding scores at 1-2 and 3-4 hours following surgical injury to the cumulative guarding scores of animals that received the vehicle.

rTRPA1, sequence (Q6RI86 whole entry): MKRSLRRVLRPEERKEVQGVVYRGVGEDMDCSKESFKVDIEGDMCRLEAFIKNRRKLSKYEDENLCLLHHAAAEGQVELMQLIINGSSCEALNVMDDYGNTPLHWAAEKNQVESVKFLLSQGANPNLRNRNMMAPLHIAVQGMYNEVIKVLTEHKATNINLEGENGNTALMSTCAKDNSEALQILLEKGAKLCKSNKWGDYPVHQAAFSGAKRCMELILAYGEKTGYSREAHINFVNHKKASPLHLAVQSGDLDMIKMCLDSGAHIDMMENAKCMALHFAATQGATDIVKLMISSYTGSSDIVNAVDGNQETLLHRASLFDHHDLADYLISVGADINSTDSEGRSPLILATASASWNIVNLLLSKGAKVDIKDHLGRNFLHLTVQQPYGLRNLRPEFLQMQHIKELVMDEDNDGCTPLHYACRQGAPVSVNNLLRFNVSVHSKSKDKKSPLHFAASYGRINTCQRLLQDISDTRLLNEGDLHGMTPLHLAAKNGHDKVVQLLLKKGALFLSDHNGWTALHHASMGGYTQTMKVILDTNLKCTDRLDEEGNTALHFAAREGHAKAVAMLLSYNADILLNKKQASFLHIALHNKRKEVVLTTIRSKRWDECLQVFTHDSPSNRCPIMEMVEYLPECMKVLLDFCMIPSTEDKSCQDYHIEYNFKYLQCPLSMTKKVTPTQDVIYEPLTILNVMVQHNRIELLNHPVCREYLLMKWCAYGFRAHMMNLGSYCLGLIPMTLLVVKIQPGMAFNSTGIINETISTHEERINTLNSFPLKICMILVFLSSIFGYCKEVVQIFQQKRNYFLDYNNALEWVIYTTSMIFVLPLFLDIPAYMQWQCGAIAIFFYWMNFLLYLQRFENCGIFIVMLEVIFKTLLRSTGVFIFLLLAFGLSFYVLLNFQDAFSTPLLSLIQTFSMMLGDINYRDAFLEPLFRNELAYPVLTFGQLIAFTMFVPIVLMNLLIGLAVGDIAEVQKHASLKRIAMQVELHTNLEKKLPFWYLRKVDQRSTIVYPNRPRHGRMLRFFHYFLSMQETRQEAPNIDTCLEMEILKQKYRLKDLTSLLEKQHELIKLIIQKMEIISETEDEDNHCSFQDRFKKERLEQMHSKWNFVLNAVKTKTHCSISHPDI

C[C@H]1CCCN1c1ncc(-c2cccc(NC(=O)Cn3cnc4c3c(=O)n(C)c(=O)n4C)n2)cn1 [Formula (Ia)]
IC50 (rTRPA1): ~100 nM
Fold Selectivity Compared to TRPA1 (hTRPV1): >100 Fold
Fold Selectivity Compared to TRPA1 (hTRPV6): ~370 Fold
effect on cold allodynia [1]: has an analgesic effect on cold allodynia
reduction of spontaneous pain compared with ketoprofen [2]: equivalent to ketoprofen; also recorded: better than ketoprofen
